# Positions of bridges follow the written chain, without caps; N, C: chain ends. Non-standard residues stand in square brackets, D forms with d. Residues, ends and D or L forms follow the SMILES beside them. *: point of attachment. DOTA = O=C(O)CN1CCN(CC(=O)O)CCN(CC(=O)*)CCN(CC(=O)O)CC1; Pent4ynoyl = C#CCCC(=O)*; Pra = C#CC[C@H](N)C(=O)O; Abu = CC[C@H](N)C(=O)O
# Experiments:
# hNav1.5 = hNav1.5 (Homo sapiens, UniProt Q14524); experiment: cell-based
# hNav1.7 = hNav1.7 (Homo sapiens, UniProt Q15858); experiment: cell-based; settings: Nav1.7 Use IC50
# Sequence of hNav1.7 (Q15858 whole entry, looked up): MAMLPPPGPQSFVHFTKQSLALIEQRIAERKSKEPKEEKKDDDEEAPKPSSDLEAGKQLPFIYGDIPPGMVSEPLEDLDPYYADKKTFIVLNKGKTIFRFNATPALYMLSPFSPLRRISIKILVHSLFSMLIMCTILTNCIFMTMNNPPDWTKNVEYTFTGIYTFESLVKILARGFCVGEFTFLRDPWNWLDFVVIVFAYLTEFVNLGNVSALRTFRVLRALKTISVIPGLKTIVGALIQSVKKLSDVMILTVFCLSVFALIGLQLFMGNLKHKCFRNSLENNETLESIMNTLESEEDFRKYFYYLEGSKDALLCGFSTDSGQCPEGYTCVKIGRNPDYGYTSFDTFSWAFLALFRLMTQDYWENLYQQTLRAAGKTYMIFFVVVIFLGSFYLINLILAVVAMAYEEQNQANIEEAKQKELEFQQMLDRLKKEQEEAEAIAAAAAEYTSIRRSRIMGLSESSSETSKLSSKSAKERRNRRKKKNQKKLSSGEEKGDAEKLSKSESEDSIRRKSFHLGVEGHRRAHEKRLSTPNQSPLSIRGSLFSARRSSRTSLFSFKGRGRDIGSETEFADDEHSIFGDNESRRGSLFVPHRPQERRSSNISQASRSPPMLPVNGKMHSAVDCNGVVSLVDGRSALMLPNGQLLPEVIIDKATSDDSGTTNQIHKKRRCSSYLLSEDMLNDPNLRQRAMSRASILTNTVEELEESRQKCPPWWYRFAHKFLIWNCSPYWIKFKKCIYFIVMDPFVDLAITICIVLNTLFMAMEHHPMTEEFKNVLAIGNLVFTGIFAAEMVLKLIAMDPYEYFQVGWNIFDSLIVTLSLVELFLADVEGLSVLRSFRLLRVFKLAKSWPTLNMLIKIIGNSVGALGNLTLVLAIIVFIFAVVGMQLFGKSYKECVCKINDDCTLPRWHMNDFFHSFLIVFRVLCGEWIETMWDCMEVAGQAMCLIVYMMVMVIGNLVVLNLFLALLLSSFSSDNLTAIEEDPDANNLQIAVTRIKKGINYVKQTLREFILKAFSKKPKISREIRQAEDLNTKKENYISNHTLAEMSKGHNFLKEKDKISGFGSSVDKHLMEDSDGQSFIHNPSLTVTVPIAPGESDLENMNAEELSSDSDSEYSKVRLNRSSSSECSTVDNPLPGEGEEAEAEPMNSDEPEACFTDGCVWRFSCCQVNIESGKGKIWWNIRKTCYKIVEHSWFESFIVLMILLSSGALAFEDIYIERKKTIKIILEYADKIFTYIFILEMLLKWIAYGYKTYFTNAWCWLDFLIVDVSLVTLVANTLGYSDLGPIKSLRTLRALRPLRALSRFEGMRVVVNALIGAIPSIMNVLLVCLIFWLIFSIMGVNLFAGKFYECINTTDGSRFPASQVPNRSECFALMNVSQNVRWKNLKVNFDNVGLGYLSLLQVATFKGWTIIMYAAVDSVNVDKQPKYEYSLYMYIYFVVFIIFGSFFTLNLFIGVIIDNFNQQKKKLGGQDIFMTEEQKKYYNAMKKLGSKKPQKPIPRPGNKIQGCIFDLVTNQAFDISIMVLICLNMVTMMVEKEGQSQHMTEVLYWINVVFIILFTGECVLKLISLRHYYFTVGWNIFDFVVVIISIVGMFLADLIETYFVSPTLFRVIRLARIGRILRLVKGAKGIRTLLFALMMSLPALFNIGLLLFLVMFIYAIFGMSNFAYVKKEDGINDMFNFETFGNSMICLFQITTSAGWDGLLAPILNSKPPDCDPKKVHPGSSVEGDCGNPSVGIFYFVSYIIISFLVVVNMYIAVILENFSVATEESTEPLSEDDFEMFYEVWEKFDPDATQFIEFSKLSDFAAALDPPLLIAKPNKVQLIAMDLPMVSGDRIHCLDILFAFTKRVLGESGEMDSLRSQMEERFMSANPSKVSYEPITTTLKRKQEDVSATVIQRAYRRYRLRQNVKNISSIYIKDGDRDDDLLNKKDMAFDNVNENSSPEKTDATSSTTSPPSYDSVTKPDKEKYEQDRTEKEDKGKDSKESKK
# Sequence of hNav1.5 (Q14524 whole entry, looked up): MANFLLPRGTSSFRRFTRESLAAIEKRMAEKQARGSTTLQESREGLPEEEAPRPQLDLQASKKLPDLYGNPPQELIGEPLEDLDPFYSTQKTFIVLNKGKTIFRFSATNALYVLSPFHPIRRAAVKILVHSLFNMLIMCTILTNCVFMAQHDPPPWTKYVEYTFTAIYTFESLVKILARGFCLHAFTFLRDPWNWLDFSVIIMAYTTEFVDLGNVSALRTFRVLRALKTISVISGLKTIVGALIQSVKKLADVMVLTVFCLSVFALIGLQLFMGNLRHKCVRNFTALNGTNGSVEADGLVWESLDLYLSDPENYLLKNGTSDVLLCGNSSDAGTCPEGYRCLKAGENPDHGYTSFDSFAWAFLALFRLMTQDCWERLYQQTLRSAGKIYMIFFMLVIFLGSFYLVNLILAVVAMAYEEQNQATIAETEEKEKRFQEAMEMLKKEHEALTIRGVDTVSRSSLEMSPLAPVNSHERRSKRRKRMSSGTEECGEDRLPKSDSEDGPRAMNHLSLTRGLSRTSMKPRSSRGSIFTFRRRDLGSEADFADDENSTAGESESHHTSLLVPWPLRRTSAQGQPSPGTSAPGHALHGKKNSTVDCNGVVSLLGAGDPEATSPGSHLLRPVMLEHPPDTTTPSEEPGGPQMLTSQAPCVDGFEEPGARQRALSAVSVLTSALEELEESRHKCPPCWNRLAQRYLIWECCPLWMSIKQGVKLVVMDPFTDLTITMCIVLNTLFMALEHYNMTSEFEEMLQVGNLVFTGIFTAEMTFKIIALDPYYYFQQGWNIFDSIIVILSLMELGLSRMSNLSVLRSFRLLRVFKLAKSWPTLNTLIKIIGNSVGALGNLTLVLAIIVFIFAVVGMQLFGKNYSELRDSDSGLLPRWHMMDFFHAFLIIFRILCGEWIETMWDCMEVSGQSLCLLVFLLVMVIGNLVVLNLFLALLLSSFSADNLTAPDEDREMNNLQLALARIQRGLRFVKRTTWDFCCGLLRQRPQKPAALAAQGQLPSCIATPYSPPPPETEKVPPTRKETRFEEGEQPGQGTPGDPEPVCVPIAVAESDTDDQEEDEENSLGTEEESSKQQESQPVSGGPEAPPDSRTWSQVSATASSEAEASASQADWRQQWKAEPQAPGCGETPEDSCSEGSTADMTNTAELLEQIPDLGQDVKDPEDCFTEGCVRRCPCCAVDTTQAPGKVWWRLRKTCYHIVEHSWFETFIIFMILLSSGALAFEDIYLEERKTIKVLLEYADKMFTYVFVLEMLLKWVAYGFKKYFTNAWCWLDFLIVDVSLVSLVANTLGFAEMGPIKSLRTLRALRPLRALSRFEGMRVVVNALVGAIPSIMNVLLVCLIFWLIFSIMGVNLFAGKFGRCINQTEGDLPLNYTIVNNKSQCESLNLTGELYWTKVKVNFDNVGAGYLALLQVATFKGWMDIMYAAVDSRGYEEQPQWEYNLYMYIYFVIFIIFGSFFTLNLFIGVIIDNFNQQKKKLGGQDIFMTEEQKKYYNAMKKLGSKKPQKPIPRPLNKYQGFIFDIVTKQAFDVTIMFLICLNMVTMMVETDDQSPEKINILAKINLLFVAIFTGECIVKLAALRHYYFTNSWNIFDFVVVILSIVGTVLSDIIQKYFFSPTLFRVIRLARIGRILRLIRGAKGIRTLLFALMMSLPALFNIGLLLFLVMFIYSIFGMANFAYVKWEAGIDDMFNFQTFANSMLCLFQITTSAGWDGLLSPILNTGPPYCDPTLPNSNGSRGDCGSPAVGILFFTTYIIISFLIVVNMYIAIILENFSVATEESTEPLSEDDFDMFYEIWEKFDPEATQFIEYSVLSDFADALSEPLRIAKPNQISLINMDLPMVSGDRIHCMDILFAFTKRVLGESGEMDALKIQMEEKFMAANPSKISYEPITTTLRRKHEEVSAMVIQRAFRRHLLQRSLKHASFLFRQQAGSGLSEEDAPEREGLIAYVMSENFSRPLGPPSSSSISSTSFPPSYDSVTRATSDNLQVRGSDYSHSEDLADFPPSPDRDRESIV
SMILES,IC50 (hNav1.5),IC50 (hNav1.7)
"C#CC[C@@H]1NC(=O)[C@H](CC(=O)O)NC(=O)[C@@H]2CCCN2C(=O)[C@H](CCC(=O)O)NC(=O)[C@@H]2CSSC[C@@H]3NC(=O)[C@H](C(C)C)NC(=O)[C@H](CC(C)C)NC(=O)[C@H](CC(N)=O)NC(=O)[C@@H]4CCCN4C(=O)[C@H](CCCNC(=N)N)NC(=O)[C@H](CSSC[C@H](NC(=O)[C@@H](N)CC(=O)O)C(=O)N[C@@H](CC(C)C)C(=O)NCC(=O)N[C@@H](C)C(=O)N[C@@H](Cc4ccccc4)C(=O)N[C@@H](CCCNC(=N)N)C(=O)N[C@@H](CCCCN)C(=O)N2)NC(=O)[C@H](CSSC[C@@H](C(=O)N[C@@H](CCCCN)C(=O)N[C@@H](Cc2ccc(O)cc2)C(=O)N[C@H](C(=O)N[C@@H](Cc2ccccc2)C(N)=O)C(C)C)NC(=O)[C@H](Cc2c[nH]c4ccccc24)NC(=O)[C@H](CCCNC(=N)N)NC(=O)[C@H](Cc2c[nH]cn2)NC(=O)[C@H](CC(C)C)NC(=O)[C@H](CCCNC(=N)N)NC(=O)[C@H](CO)NC3=O)NC(=O)[C@H](CCCCN)NC(=O)[C@H](CC(=O)O)NC1=O (H-DCLGAFRKCEPD[Pra]DKCCRPNLVCSRLHRWCKYVF-NH2; disulfide 2-17, 9-23, 16-30)",15300 nM,12 nM
"CC[C@H](C)[C@@H]1NC(=O)[C@@H]2CSSC[C@@H]3NC(=O)[C@H](C(C)C)NC(=O)[C@H](CC(C)C)NC(=O)[C@H](CC(N)=O)NC(=O)[C@@H]4CCCN4C(=O)[C@H](CCCNC(=N)N)NC(=O)[C@H](CSSC[C@H](NC(=O)[C@@H](N)CC(=O)O)C(=O)N[C@@H](CC(C)C)C(=O)NCC(=O)N[C@@H](C)C(=O)N[C@@H](Cc4ccccc4)C(=O)N[C@@H](CCCNC(=N)N)C(=O)N[C@@H](CCCCN)C(=O)N2)NC(=O)[C@H](CSSC[C@@H](C(=O)N[C@@H](CCCCN)C(=O)N[C@@H](Cc2ccc(O)cc2)C(=O)N[C@H](C(=O)N[C@@H](Cc2ccccc2)C(N)=O)C(C)C)NC(=O)[C@H](Cc2c[nH]c4ccccc24)NC(=O)[C@H](CCCNC(=N)N)NC(=O)[C@H](Cc2c[nH]cn2)NC(=O)[C@H](CC(C)C)NC(=O)[C@H](CCCNC(=N)N)NC(=O)[C@H](CO)NC3=O)NC(=O)[C@H](CCCCN)NC(=O)[C@H](CC(=O)O)NC(=O)[C@H](CCCCNC(=O)CN2CCN(CC(=O)O)CCN(CC(=O)O)CCN(CC(=O)O)CC2)NC(=O)[C@H](CC(=O)O)NC(=O)[C@@H]2CCCN2C1=O (H-DCLGAFRKCIPDK(DOTA)DKCCRPNLVCSRLHRWCKYVF-NH2; disulfide 2-17, 9-23, 16-30)",> 10000 nM,27.5 nM
"CC[C@@H]1NC(=O)[C@H](CC(=O)O)NC(=O)[C@@H]2CCCN2C(=O)[C@H]([C@@H](C)CC)NC(=O)[C@@H]2CSSC[C@@H]3NC(=O)[C@H](C(C)C)NC(=O)[C@H](CC(C)C)NC(=O)[C@H](CC(N)=O)NC(=O)[C@@H]4CCCN4C(=O)[C@H](CCCNC(=N)N)NC(=O)[C@H](CSSC[C@H](NC(=O)[C@@H](N)CC(=O)O)C(=O)N[C@@H](CC(C)C)C(=O)NCC(=O)N[C@@H](C)C(=O)N[C@@H](Cc4ccccc4)C(=O)N[C@@H](CCCNC(=N)N)C(=O)N[C@@H](CCCCN)C(=O)N2)NC(=O)[C@H](CSSC[C@@H](C(=O)N[C@@H](CCCCN)C(=O)N[C@@H](Cc2ccc(O)cc2)C(=O)N[C@H](C(=O)N[C@@H](Cc2ccccc2)C(N)=O)C(C)C)NC(=O)[C@H](Cc2c[nH]c4ccccc24)NC(=O)[C@H](CCCNC(=N)N)NC(=O)[C@H](Cc2c[nH]cn2)NC(=O)[C@H](CC(C)C)NC(=O)[C@H](CCCNC(=N)N)NC(=O)[C@H](CO)NC3=O)NC(=O)[C@H](CCCCN)NC(=O)[C@H](CC(=O)O)NC1=O (H-DCLGAFRKCIPD[Abu]DKCCRPNLVCSRLHRWCKYVF-NH2; disulfide 2-17, 9-23, 16-30)",> 10000 nM,4.7 nM
"C#CC[C@@H]1NC(=O)[C@H](CC(=O)O)NC(=O)[C@@H]2CCCN2C(=O)[C@H]([C@@H](C)CC)NC(=O)[C@@H]2CSSC[C@@H]3NC(=O)[C@H](C(C)C)NC(=O)[C@H](CC(C)C)NC(=O)[C@H](CC(N)=O)NC(=O)[C@@H]4CCCN4C(=O)[C@H](CCCNC(=N)N)NC(=O)[C@H](CSSC[C@H](NC(=O)[C@@H](N)CC(=O)O)C(=O)N[C@@H](CC(C)C)C(=O)NCC(=O)N[C@@H](C)C(=O)N[C@@H](Cc4ccccc4)C(=O)N[C@@H](CCCNC(=N)N)C(=O)N[C@@H](CCCCN)C(=O)N2)NC(=O)[C@H](CSSC[C@@H](C(=O)N[C@@H](CCCCN)C(=O)N[C@@H](Cc2ccc(O)cc2)C(=O)N[C@H](C(=O)N[C@@H](Cc2ccccc2)C(N)=O)C(C)C)NC(=O)[C@H](Cc2c[nH]c4ccccc24)NC(=O)[C@H](CCCNC(=N)N)NC(=O)[C@H](Cc2c[nH]cn2)NC(=O)[C@H](CC(C)C)NC(=O)[C@H](CCCNC(=N)N)NC(=O)[C@H](CO)NC3=O)NC(=O)[C@H](CCCCN)NC(=O)[C@H](CC(=O)O)NC1=O (H-DCLGAFRKCIPD[Pra]DKCCRPNLVCSRLHRWCKYVF-NH2; disulfide 2-17, 9-23, 16-30)",> 10000 nM,3 nM
"CC[C@H](C)[C@@H]1NC(=O)[C@@H]2CSSC[C@@H]3NC(=O)[C@H](C(C)C)NC(=O)[C@H](CC(C)C)NC(=O)[C@H](CC(N)=O)NC(=O)[C@@H]4CCCN4C(=O)[C@H](CCCNC(=N)N)NC(=O)[C@H](CSSC[C@H](NC(=O)[C@@H](N)CC(=O)O)C(=O)N[C@@H](CC(C)C)C(=O)NCC(=O)N[C@@H](C)C(=O)N[C@@H](CC(C)C)C(=O)N[C@@H](CCCNC(=N)N)C(=O)N[C@@H](CCCCN)C(=O)N2)NC(=O)[C@H](CSSC[C@@H](C(=O)N[C@@H](CCCCN)C(=O)N[C@@H](Cc2ccc(O)cc2)C(=O)N[C@H](C(=O)N[C@@H](Cc2ccccc2)C(=O)N[C@@H](Cc2c[nH]c4ccccc24)C(=O)O)C(C)C)NC(=O)[C@H](Cc2c[nH]c4ccccc24)NC(=O)[C@H](CCCNC(=N)N)NC(=O)[C@H](Cc2c[nH]cn2)NC(=O)[C@H]([C@@H](C)O)NC(=O)[C@H](CCCNC(=N)N)NC(=O)[C@H](CO)NC3=O)NC(=O)[C@H](CCCCN)NC(=O)[C@H](CC(=O)O)NC(=O)[C@H](CC(N)=O)NC(=O)[C@H](CC(=O)O)NC(=O)[C@@H]2CCCN2C1=O (H-DCLGALRKCIPDNDKCCRPNLVCSRTHRWCKYVFW-OH; disulfide 2-17, 9-23, 16-30)",> 10000 nM,50 nM
"CC[C@@H]1NC(=O)[C@H](CC(=O)O)NC(=O)[C@@H]2CCCN2C(=O)[C@H]([C@@H](C)CC)NC(=O)[C@@H]2CSSC[C@@H]3NC(=O)[C@H](C(C)C)NC(=O)[C@H](CC(C)C)NC(=O)[C@H](CC(N)=O)NC(=O)[C@@H]4CCCN4C(=O)[C@H](CCCNC(=N)N)NC(=O)[C@H](CSSC[C@H](NC(=O)[C@@H](N)CC(=O)O)C(=O)N[C@@H](CC(C)C)C(=O)NCC(=O)N[C@@H](C)C(=O)N[C@@H](CC(C)C)C(=O)N[C@@H](CCCNC(=N)N)C(=O)N[C@@H](CCCCN)C(=O)N2)NC(=O)[C@H](CSSC[C@@H](C(=O)N[C@@H](CCCCN)C(=O)N[C@@H](Cc2ccc(O)cc2)C(=O)N[C@H](C(=O)N[C@@H](Cc2ccccc2)C(N)=O)C(C)C)NC(=O)[C@H](Cc2c[nH]c4ccccc24)NC(=O)[C@H](CCCNC(=N)N)NC(=O)[C@H](Cc2c[nH]cn2)NC(=O)[C@H](CC(C)C)NC(=O)[C@H](CCCNC(=N)N)NC(=O)[C@H](CO)NC3=O)NC(=O)[C@H](CCCCN)NC(=O)[C@H](CC(=O)O)NC1=O (H-DCLGALRKCIPD[Abu]DKCCRPNLVCSRLHRWCKYVF-NH2; disulfide 2-17, 9-23, 16-30)",> 10000 nM,8.7 nM
"C#CCCC(=O)NCCCC[C@@H]1NC(=O)[C@H](CC(=O)O)NC(=O)[C@@H]2CCCN2C(=O)[C@H]([C@@H](C)CC)NC(=O)[C@@H]2CSSC[C@@H]3NC(=O)[C@H](C(C)C)NC(=O)[C@H](CC(C)C)NC(=O)[C@H](CC(N)=O)NC(=O)[C@@H]4CCCN4C(=O)[C@H](CCCNC(=N)N)NC(=O)[C@H](CSSC[C@H](NC(=O)[C@@H](N)CC(=O)O)C(=O)N[C@@H](CC(C)C)C(=O)NCC(=O)N[C@@H](CC)C(=O)N[C@@H](CC(C)C)C(=O)N[C@@H](CCCNC(=N)N)C(=O)N[C@@H](CCCCN)C(=O)N2)NC(=O)[C@H](CSSC[C@@H](C(=O)N[C@@H](CCCCN)C(=O)N[C@@H](Cc2ccc(O)cc2)C(=O)N[C@H](C(=O)N[C@@H](Cc2ccccc2)C(N)=O)C(C)C)NC(=O)[C@H](Cc2c[nH]c4ccccc24)NC(=O)[C@H](CCCNC(=N)N)NC(=O)[C@H](Cc2c[nH]cn2)NC(=O)[C@H]([C@@H](C)O)NC(=O)[C@H](CCCNC(=N)N)NC(=O)[C@H](CO)NC3=O)NC(=O)[C@H](CCCCN)NC(=O)[C@H](CC(=O)O)NC1=O (H-DCLG[Abu]LRKCIPDK(Pent4ynoyl)DKCCRPNLVCSRTHRWCKYVF-NH2; disulfide 2-17, 9-23, 16-30)",> 10000 nM,2 nM
"CC[C@H](C)[C@@H]1NC(=O)[C@@H]2CSSC[C@@H]3NC(=O)[C@H](C(C)C)NC(=O)[C@H](CC(C)C)NC(=O)[C@H](CC(N)=O)NC(=O)[C@@H]4CCCN4C(=O)[C@H](CCCNC(=N)N)NC(=O)[C@H](CSSC[C@H](NC(=O)[C@H](CC(=O)O)NC(=O)[C@H](CO)NC(=O)CN)C(=O)N[C@@H](CC(C)C)C(=O)NCC(=O)N[C@@H](C)C(=O)N[C@@H](Cc4ccccc4)C(=O)N[C@@H](CCCNC(=N)N)C(=O)N[C@@H](CCCCN)C(=O)N2)NC(=O)[C@H](CSSC[C@@H](C(=O)N[C@@H](CCCCN)C(=O)N[C@@H](Cc2ccc(O)cc2)C(=O)N[C@H](C(=O)N[C@@H](Cc2ccccc2)C(=O)N[C@@H](Cc2ccccc2)C(=O)O)C(C)C)NC(=O)[C@H](Cc2c[nH]c4ccccc24)NC(=O)[C@H](CCCNC(=N)N)NC(=O)[C@H](Cc2c[nH]cn2)NC(=O)[C@H]([C@@H](C)O)NC(=O)[C@H](CCCNC(=N)N)NC(=O)[C@H](CO)NC3=O)NC(=O)[C@H](CCCCN)NC(=O)[C@H](CC(=O)O)NC(=O)[C@H](CC(N)=O)NC(=O)[C@H](CC(=O)O)NC(=O)[C@@H]2CCCN2C1=O (H-GSDCLGAFRKCIPDNDKCCRPNLVCSRTHRWCKYVFF-OH; disulfide 4-19, 11-25, 18-32)",> 10000 nM,47 nM
